Key:
p-4E-BP1 at T70 = assay: Cellular p-4E-BP1-T70 assay in KPL-4 cells; type: cell-based; conditions: Homo sapiens, KPL4; KPL-4 breast tumour cell line, 2 hours treatment; read-out: P4EBP1-T70 median IC50
Method: The molecular mechanism of action was investigated in a set of experiments to assess the inhibition of the PI3K-AKT-mTOR pathway in responsive cell lines such as KPL-4 breast tumour cell line (PIK3CA^H1047R, HER2^O/E and hormone independent). The phospho-substrates of PI3K-AKT-mTOR axis were used as the readouts to reflect pathway inhibition. Cells were seeded at 60-80% confluency per well in 96-well cell culture plates. After overnight incubation at 37° C. 5% CO2, cells were treated with compounds and vehicle at 37° C. for 2 hours. Thereafter, cells were lysed in 150 μl lysis buffer and the levels of phospho-AKT at T308 and S473 and p-4E-BP1 at T70 sites were determined with the corresponding AlphaScreen® SureFire® assay kits (Perkin Elmer: 4E-BP1 Assay Kit Cat # TRG4E2S10K; Akt 1/2/3 p-Ser 473 #TGRA4S500 and Akt 1/2/3 p-Thr 308 #TGRA3S500 as well as IgG detection Kit #6760617M) as described in the manuals. All measurements where at least done in duplicates and confirmed by independent repetition. Alternatively pAKT-S473 was measured using the “Akt Duplex” of the MULTI-SPOT® Assay System (Fa. Meso Scale Discovery, Cat# N41100B-1) following manufacturers instructions. Each assay used 20 μg of protein extract and measured total AKT and p-AKT content simultaneously in one well. All measurements where at least done in duplicates and confirmed by independent repetition. Values for P-AKT are expressed as percentage of P-AKT level compared to total-AKT content of the extracts.

[1] = system: MCF-7 breast tumour cell line; assay: Tumor cell proliferation assay (CellTiter-Glo, 72 h), MCF-7; type: cell-based; conditions: Homo sapiens, MCF7, 72 h drug exposure; for inhibition at 1.67 µM: read-out: MCF-7 median inhibition at 1.67 μM (%)
Method: Biological Assay 4.0: Tumor Cell Proliferation Assays
Compounds were tested in a cell-based assay that measures the capacity of the compounds to inhibit tumour cell proliferation following a 72 h drug exposure. Cell viability is determined using CellTiter-Glow® (CTG, Promega, cat# G7571/2/3). The CellTiter-Glo® Luminescent Cell Viability Assay is a homogeneous method to determine the number of viable cells in culture. Detection is based on using the luciferase reaction to measure the amount of ATP from viable cells. The amount of ATP in cells correlates with cell viability. Within minutes after a loss of membrane integrity, cells lose the ability to synthesize ATP, and endogenous ATPases destroy any remaining ATP; thus the levels of ATP fall precipitously.
Cells were plated at 3000-5000 cells/well (depending on the cell lines) in 90 μL growth medium on MTPs (Corning; #3603, black plate, clear flat bottom). For each cell line assayed, cells were plated onto a separate plate for determination of […] at t=0 hour and t=72 hour time points. Following overnight incubation at 37° C., chemiluminescence values for the t=0 samples were determined after adding 10 μl medium and 100 μl CTG solution according to manufacture protocol. Plates for the t=72 hour time points were treated with compounds diluted into growth medium at ten times final concentration added in 10 μL to the cell culture plate. Cells were then incubated for 72 hours at 37° C. Chemiluminescence values for the t=72 hour samples were determined. […] Experiments were controlled using a reference compound as standard.
Preferred compounds of the present invention show in this assay an inhibition of cell growth of cell lines such as the KPL-4 breast cancer cell line and the MCF-7 breast tumour cell line ([…], hormone dependent) with a median IC50 of <10 μM, more preferably, median IC50≦1 μM.

[2] = target: His-tagged human recombinant kinase full-length Akt2 (Homo sapiens (Human), UniProt P31751); assay: Akt2 kinase assay (TR-FRET); type: biochemical; conditions: 10 μM ATP, read-out: Akt2, median IC50
Excerpt: Biological Assay 2.0: Akt2 Kinase Assay
Akt2 inhibitory activity of compounds of the present invention was quantified employing the Akt2 TR-FRET assay as described in the following paragraphs.
His-tagged human recombinant kinase full-length Akt2 expressed in insect cells and activated by PDK1 was purchased from Invitrogen (part number PV 3975). As substrate for the kinase reaction the biotinylated peptide biotin-Ahx-KKLNRTLSFAEPG (C-terminus in amide form) was used which can be purchased e.g. from the company Biosynthan GmbH (Berlin-Buch, Germany).
For the assay 50 nl of a 100 fold concentrated solution of the test compound in DMSO was pipetted into a black low volume 384 well microtiter plate (Greiner Bio-One, Frickenhausen, Germany), 2 μl of a solution of Akt2 in assay buffer [50 mM TRIS/HCl pH 7.5, 5 mM MgCl2, 1 mM dithiothreitol, 0.02% (v/v) Triton X-100 (Sigma)] were added and the mixture was incubated for 15 min at 22° C. to allow prebinding of the test compounds to the enzyme before the start of the kinase reaction. Then the kinase reaction was started by the addition of 3 μl of a solution of adenosine-tri-phosphate (ATP, 16.7 μM=>final conc. in the 5 μl assay volume is 10 μM) and substrate (1.67 μM=>final conc. in the 5 μl assay volume is 1 μM) in assay buffer and the resulting mixture was incubated for a reaction time of 60 min at 22° C. The concentration of Akt2 in the assay was adjusted depending of the activity of the enzyme lot and was chosen appropriate to have the assay in the linear range, typical enzyme concentrations were in the range of about 0.2 ng/μl (final conc. in the 5 μl assay volume).
The reaction was stopped by the addition of 5 μl of a solution of HTRF detection reagents (200 nM streptavidine-XL665 [Cisbio] and 1.5 nM anti-phosho-Serine antibody [Millipore, cat. #35-001] and 0.75 nM LANCE Eu-W 1024 labeled anti-mouse IgG antibody [Perkin Elmer]) in an aqueous EDTA-solution (100 mM EDTA, 0.1% (w/v) bovine serum albumin in 50 mM HEPES/NaOH pH 7.5).
The resulting mixture was incubated 1 h at 22° C. to allow the binding of the biotinylated phosphorylated peptide to the streptavidine-XL665 and the antibodies. Subsequently the amount of phosphorylated substrate was evaluated by measurement of the resonance energy transfer from the anti-mouse-IgG-Eu-Chelate to the streptavidine-XL665. Therefore, the fluorescence emissions at 620 nm and 665 nm after excitation at 350 nm was measured in a TR-FRET reader, e.g. a Rubystar (BMG Labtechnologies, Offenburg, Germany) or a Viewlux (Perkin-Elmer). The ratio of the emissions at 665 nm and at […] was taken as the measure for the amount of phosphorylated substrate. The data were normalised (enzyme reaction without inhibitor=0% inhibition, all other assay components but no enzyme=100% inhibition).

Chain of His-tagged human recombinant kinase full-length Akt2 (P31751 whole entry): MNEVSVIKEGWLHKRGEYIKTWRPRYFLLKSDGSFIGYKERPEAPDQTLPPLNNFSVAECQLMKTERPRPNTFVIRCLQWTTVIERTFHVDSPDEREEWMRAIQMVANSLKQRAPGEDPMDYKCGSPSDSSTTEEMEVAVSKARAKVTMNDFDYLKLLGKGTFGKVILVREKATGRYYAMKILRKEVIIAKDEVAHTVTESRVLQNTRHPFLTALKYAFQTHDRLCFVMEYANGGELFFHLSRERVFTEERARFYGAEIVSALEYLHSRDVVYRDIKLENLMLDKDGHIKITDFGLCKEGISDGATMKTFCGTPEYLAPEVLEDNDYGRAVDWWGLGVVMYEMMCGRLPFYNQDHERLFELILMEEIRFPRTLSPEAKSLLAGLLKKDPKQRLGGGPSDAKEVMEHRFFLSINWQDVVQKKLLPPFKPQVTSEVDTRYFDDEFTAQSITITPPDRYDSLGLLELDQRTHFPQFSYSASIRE

| IC50 (p-4E-BP1 at T70) [nM] | IC50 [1] [nM] | IC50 [2] [nM] | SMILES | inhibition at 1.67 µM [1] [%] |
| --- | --- | --- | --- | --- |
| 1100 | 720 | 220 | Cc1cn2c(-c3ccccc3)c(-c3ccc(C4(N)CCC4)cc3)nc2c(C)n1 [Example 2, 1-[4-(6,8-Dimethyl-3-phenylimidazo[1,2-a]pyrazin-2-yl)phenyl]-cyclobutanamine] | 70.8 |
| 1400 | 1700 | 33 | COc1nc(Br)cn2c(-c3ccccc3)c(-c3ccc(C4(N)CCC4)cc3)nc12 [Example 3, 1-[4-(6-Bromo-8-methoxy-3-phenylimidazo[1,2-a]pyrazin-2-yl)phenyl]cyclobutanamine] | 46.2 |
| 380 | 850 | 34 | CCc1cn2c(-c3ccccc3)c(-c3ccc(C4(N)CCC4)cc3)nc2c(OC)n1 [Example 4, 1-[4-(6-Ethyl-8-methoxy-3-phenylimidazo[1,2-a]pyrazin-2-yl)phenyl]cyclobutanamine] | 72.4 |
| 18 | 1100 | 97 | NC(=O)c1cn2c(-c3ccccc3)c(-c3ccc(C4(N)CCC4)cc3)nc2cn1 [Example 6, 2-[4-(1-Aminocyclobutyl)phenyl]-3-phenylimidazo[1,2-a]pyrazine-6-carboxamide] | 57.3 |
| 43 | 420 | 86 | COC(=O)c1cn2c(-c3ccccc3)c(-c3ccc(C4(N)CCC4)cc3)nc2c(OC)n1 [Example 7, Methyl 2-[4-(1-aminocyclobutyl)phenyl]-8-methoxy-3-phenylimidazo[1,2-a]pyrazine-6-carboxylate] | 72.3 |
| 18 | 270 | 14 | COc1nc(C(N)=O)cn2c(-c3ccccc3)c(-c3ccc(C4(N)CCC4)cc3)nc12 [Example 8, 2-[4-(1-Aminocyclobutyl)phenyl]-8-methoxy-3-phenylimidazo[1,2-a]pyrazine-6-carboxamide] | 73.1 |

— patent publication US9260435B2, “Substituted imidazopyrazines as Akt kinase inhibitors” (Bayer Intellectual Property GmbH, priority 2012, dated 2016)
